Here are results for 6 molecules from US8691800B2, “Quinoline derivatives as antibacterial agents” (Janssen Pharmaceutica N.V., priority 2005, dated 2014).

In brackets after ≈: the same amount, converted by molar mass.

As a reminder, the IC90 is the point of the concentration-response curve where the effect stands at 90%. A word on the melting point: it is the temperature of the solid-liquid transition.

Data set [1] deals with methicilline resistant Staphylococcus aureus (MRSA) (a clinical isolate from the University of Antwerp). In words: Microtitre plate assay, IC90 for bacterial growth. The class given is cell-based. The note with it: 90% inhibitory concentration for bacterial growth; for IC90: Staphylococcus aureus, MRSA, read-out: IC90 STA RMETHIC. The protocol:
(§1) The bacteria used in this study were grown overnight in flasks containing 100 ml Mueller-Hinton Broth (Becton Dickinson—cat. no. 275730) in sterile de-ionized water, with shaking, at 37° C. Stocks (0.5 ml/tube) were stored at 70° C. until use. Bacteria titrations were performed in microtiter plates and colony forming units (CFUs) were determined. In general, an inoculum level of approximately 100 CFUs was used for susceptibility testing.
(§2) Anti bacterial Susceptibility Testing: IC90 Determination
(§3) Flat-bottom, sterile 96-well plastic microtiter plates were filled with 180 μl of sterile deionized water, supplemented with 0.25% BSA. Subsequently, stock solutions (7.8× final test concentration) of compounds were added in 45 μl volumes in column 2. Serial five-fold dilutions (45 μl in 180 μl) were made directly in the microtiter plates from column 2 to reach column 11. Untreated control samples with (column 1) and without (column 12) inoculum were included in each microtiter plate. Depending on the bacteria type, approximately 10 to 60 CFU per well of bacteria inoculum (100 TCID50), in a volume of 100 μl in 2.8× Mueller-Hinton broth medium, was added to the rows A to H, except column 12. The same volume of broth medium without inoculum was added to column 12 in row A to H. The cultures were incubated at 37° C. for 24 hours under a normal atmosphere (incubator with open air valve and continuous ventilation). At the end of incubation, one day after inoculation, the bacterial growth was quantitated fluorometrically. Therefore resazurin (0.6 mg/ml) was added in a volume of 20 μl to all wells 3 hours after inoculation, and the plates were re-incubated overnight. A change in colour from blue to pink indicated the growth of bacteria. The fluorescence was read in a computer-controlled fluorometer (Cytofluor Biosearch) at an excitation wavelength of 530 nm and an emission wavelength of 590 nm. The % growth inhibition achieved by the compounds was calculated according to standard methods. The IC90 (expressed in μg/ml) was defined as the 90% inhibitory concentration for bacterial growth.

In data set [2] the test system is Listeria monocytogenes (ATCC49594). In words: Microtitre plate assay, IC90 for bacterial growth. The data set is classed as cell-based. The note with it: for IC90: Listeria monocytogenes, ATCC49594, 90% inhibitory concentration for bacterial growth, read-out: IC90 LMO 49594. The protocol: as §1, §2, §3
Data set [3] relates to Streptococcus pneumoniae (ATCC6305). As to the kind of experiment: Microtitre plate assay, IC90 for bacterial growth. The note with it: for IC90 SPN 6305: 90% inhibitory concentration for bacterial growth. The data set is classed as cell-based. The protocol: as §1, §2, §3
The subject of data set [4] is Pseudomonas aeruginosa (ATCC27853). In words: Microtitre plate assay, IC90 for bacterial growth. The note with it: for IC90 PAE 27853: 90% inhibitory concentration for bacterial growth; for IC90: Pseudomonas aeruginosa, ATCC27853, 90% inhibitory concentration for bacterial growth, read-out: IC90 PAE 27853. The class given is cell-based. On the procedure: as §1, §2, §3

The test system of data set [5] is Enterococcus faecalis (ATCC29212). As to the kind of experiment: Microtitre plate assay, IC90 for bacterial growth. The class given is cell-based. As to conditions: for IC90 EFA 29212: 90% inhibitory concentration for bacterial growth; for IC90: Enterococcus faecalis, ATCC29212, 90% inhibitory concentration for bacterial growth, read-out: IC90 EFA 29212. On the procedure:
as §1, §2, §3

The test system of data set [6] is Staphylococcus aureus (ATCC29213). In words: Microtitre plate assay, IC90 for bacterial growth. The data set is classed as cell-based. As to conditions: 90% inhibitory concentration for bacterial growth, 24 hours at 37° C., resazurin; for IC90: Staphylococcus aureus, ATCC29213, 24 h, read-out: IC90 STA 29213. The protocol: as §1, §2, §3
A general note: Alamar Blue is a resazurin reagent that responds to reducing activity.

Data set [7] relates to Bacillus subtilis (ATCC43639). In words: Microtitre plate assay, IC90 for bacterial growth. The data set is classed as cell-based. The note with it: for IC90 BSU 43639: 90% inhibitory concentration for bacterial growth. On the procedure:
as §1, §2, §3

In data set [8] the test system is Staphylococcus aureus (ATCC25923). In words: Microtitre plate assay, IC90 for bacterial growth. As to conditions: for IC90 STA 25923: 90% inhibitory concentration for bacterial growth; for IC90: Staphylococcus aureus, ATCC25923, 90% inhibitory concentration for bacterial growth, read-out: IC90 STA 25923. The class given is cell-based. On the procedure: as §1, §2, §3

The subject of data set [9] is Streptococcus pyogens (ATCC8668). In words: Microtitre plate assay, IC90 for bacterial growth. As to conditions: for IC90 SPY 8668: 90% inhibitory concentration for bacterial growth; for IC90: Streptococcus, ATCC8668, 90% inhibitory concentration for bacterial growth, read-out: IC90 SPY 8668. The data set is classed as cell-based. On the procedure:
as §1, §2, §3

The subject of data set [10] is Streptococcus mutans (ATCC33402). As to the kind of experiment: Microtitre plate assay, IC90 for bacterial growth. The note with it: for IC90: Streptococcus mutans, ATCC33402, 90% inhibitory concentration for bacterial growth, read-out: IC90 SMU 33402. The data set is classed as cell-based. On the procedure: as §1, §2, §3
Data set [11] has as its system Enterococcus faecalis (ATCC14506). In words: Microtitre plate assay, IC90 for bacterial growth. The data set is classed as cell-based. The note with it: 90% inhibitory concentration for bacterial growth, read-out: IC90 EFA 14506. On the procedure:
as §1, §2, §3

The test system of data set [12] is Escherichia coli (ATCC35218). In words: Microtitre plate assay, IC90 for bacterial growth. The data set is classed as cell-based. As to conditions: 90% inhibitory concentration for bacterial growth, read-out: IC90 ECO 35218. On the procedure: as §1, §2, §3
For data set [13], the system named is Escherichia coli (ATCC1403). As to the kind of experiment: Microtitre plate assay, IC90 for bacterial growth. The note with it: Escherichia coli, ATCC1403, 90% inhibitory concentration for bacterial growth, read-out: IC90 ECO 1403. The class given is cell-based. On the procedure:
as §1, §2, §3

For data set [14], the system named is Staphylococcus aureus (ATCC43300). As to the kind of experiment: Microtitre plate assay, IC90 for bacterial growth. As to conditions: 90% inhibitory concentration for bacterial growth. The class given is cell-based. The protocol:
as §1, §2, §3

Where [15] appears, read: 90% inhibitory concentration for bacterial growth.

On to `COc1nc2ccc(C)cc2cc1C(c1ccccc1)C1(c2cccc3ccccc23)CCN(C)CO1` (single isomer, unassigned) [Compound 11], for which the “IC90 STA RMETHIC” value in data set [1] came out at 48.9 µg/mL (≈ 100 µM). Besides, in data set [2] (setting [15]), the “IC90 LMO 49594” value came out at 48.9 µg/mL (≈ 100 µM). For the same molecule, the “IC90 SPN 6305” value in data set [3] came out at 4.9 µg/mL (≈ 10 µM). The “IC90 PAE 27853” value in data set [4] was 48.9 µg/mL (≈ 100 µM). Besides, the “IC90 EFA 29212” value in data set [5] worked out at 48.9 µg/mL (≈ 100 µM). Moreover, the “IC90 STA 29213” value in data set [6] came out at 48.9 µg/mL (≈ 100 µM). In addition, in data set [7], the “IC90 BSU 43639” value is 48.9 µg/mL (≈ 100 µM). For the same molecule, the “IC90 STA 25923” value in data set [8] turned out to be 48.9 µg/mL (≈ 100 µM). The “IC90 SPY 8668” value in data set [9] is 19.5 µg/mL (≈ 39.9 µM). In [10] (setting [15]), the “IC90 SMU 33402” value was 48.9 µg/mL (≈ 100 µM).
On to `COc1nc2ccc(-c3ccco3)cc2cc1C(c1ccccc1)C1(c2cccc3ccccc23)CCN(C)CO1` (single isomer, unassigned) [Compound 12], for which, in [1], the “IC90 STA RMETHIC” value turned out to be 13.6 µg/mL (≈ 25.2 µM). Moreover, the 90% effect concentration (IC90) is 13.6 µg/mL (≈ 25.2 µM) in [2] and 10.8 µg/mL (≈ 20 µM) in data set [10]. Moreover, in data set [3], the “IC90 SPN 6305” value amounted to 12.1 µg/mL (≈ 22.4 µM). Further, in [4], the “IC90 PAE 27853” value is 13.6 µg/mL (≈ 25.2 µM). Besides, the “IC90 EFA 29212” value in data set [5] amounted to 13.6 µg/mL (≈ 25.2 µM). In data set [6], the “IC90 STA 29213” value amounted to 13.6 µg/mL (≈ 25.2 µM). Moreover, in [8], the “IC90 STA 25923” value is 13.6 µg/mL (≈ 25.2 µM). The “IC90 SPY 8668” value in data set [9] amounted to 10.8 µg/mL (≈ 20 µM).
With `COc1nc2ccc(Cl)cc2cc1C(c1ccccc1)C1(c2cccc3ccccc23)CCN(C)CO1` (single isomer, unassigned) [Compound 14], the melting point turned out to be 189 °C. The IC90 in data set [1] stood at 12.8 µg/mL (≈ 25.1 µM). For the same molecule, in [2], the 90% effect concentration (IC90) came to 12.8 µg/mL (≈ 25.1 µM). The concentration for an effect of 90% (IC90) in [3] (Streptococcus pneumoniae, ATCC6305, 90% inhibitory concentration for bacterial growth, read-out: IC90 SPN 6305) stood at 12.8 µg/mL (≈ 25.1 µM). In addition, the IC90 in data set [4] stood at 12.8 µg/mL (≈ 25.1 µM). Further, the IC90 in data set [5] turned out to be 12.8 µg/mL (≈ 25.1 µM). The IC90 in [6] worked out at 12.8 µg/mL (≈ 25.1 µM). In data set [7] (Bacillus subtilis, ATCC43639, 90% inhibitory concentration for bacterial growth, read-out: IC90 BSU 43639), the IC90 is 12.8 µg/mL (≈ 25.1 µM). Also, in data set [11], the 90% effect concentration (IC90) came to 12.8 µg/mL (≈ 25.1 µM). Besides, in data set [8], the IC90 came to 12.8 µg/mL (≈ 25.1 µM). In addition, the concentration for an effect of 90% (IC90) in data set [9] is 12.8 µg/mL (≈ 25.1 µM).
For the molecule `COc1nc2ccc(Cl)cc2cc1C(c1ccccc1)C1(c2cccc3ccccc23)CC[N+](C)(C)CO1.[I-]` (single isomer, unassigned) [Compound 16], the melting point was 195 °C. Moreover, the 90% effect concentration (IC90) in data set [1] came out at 2.1 µg/mL. The concentration for an effect of 90% (IC90) in data set [12] was found to be 41.6 µg/mL. Besides, the IC90 in data set [13] came out at 13.2 µg/mL. The IC90 in data set [2] worked out at 1.7 µg/mL. Moreover, the “IC90 SPN 6305” value in [3] came to 5.2 µg/mL. In data set [4], the concentration for an effect of 90% (IC90) stood at 10.5 µg/mL. Further, the IC90 in data set [5] was 2.6 µg/mL. The IC90 in [6] was determined as 1.9 µg/mL. Further, in data set [7], the “IC90 BSU 43639” value came out at 10.5 µg/mL. Also, the concentration for an effect of 90% (IC90) in [11] was found to be 2.1 µg/mL. Further, in data set [8], the IC90 was 1.9 µg/mL. In addition, the 90% effect concentration (IC90) in [9] came to 1.9 µg/mL. The “IC90 STA 43300” value in [14] was determined as 41.6 µg/mL. The concentration for an effect of 90% (IC90) in data set [10] is 2.1 µg/mL.
`CC[N+]1(C)CCC(c2cccc3ccccc23)(C(c2ccccc2)c2cc3cc(Br)ccc3nc2OC)OC1.[I-]` (single isomer, unassigned) [Compound 19] returned a melting point of 236 °C. In addition, the IC90 in data set [1] turned out to be 2.3 µg/mL. Besides, in [3], the “IC90 SPN 6305” value amounted to 0.5 µg/mL. Moreover, the 90% effect concentration (IC90) in data set [4] was 3.7 µg/mL. In addition, the 90% effect concentration (IC90) in data set [5] was 1.8 µg/mL. For the same molecule, the IC90 in data set [6] came to 0.4 µg/mL. Besides, in [9], the IC90 amounted to 1.8 µg/mL.
In turn, `CC[N+]1(C)CCC(c2cccc3ccccc23)(C(c2ccccc2)c2cc3cc(Br)ccc3nc2OC)OC1.[I-]` (single isomer, unassigned) [Compound 20] came in with a melting point of 215 °C. In [1], the “IC90 STA RMETHIC” value turned out to be 2.3 µg/mL. In data set [3], the “IC90 SPN 6305” value came to 1.8 µg/mL. The “IC90 PAE 27853” value in [4] was found to be 4.6 µg/mL. In data set [5], the “IC90 EFA 29212” value was determined as 1.8 µg/mL. The “IC90 STA 29213” value in data set [6] was determined as 0.5 µg/mL. Moreover, in [9], the “IC90 SPY 8668” value was determined as 2.1 µg/mL.
